Values of other authors as cited in patent US20050042280A1, “Aqueous based pharmaceutical formulations of water-soluble prodrugs of propofol” (priority 2001, published 2005).

Settings: anesthetic induction doses, Bryson et al., Drugs 50 (1995) at 520

For `CC(C)c1cccc(C(C)C)c1O` [propofol, 2,6-diisopropylphenol], the “patients with respiratory consequences, including a reduction in tidal volume and apnea” value is listed as “up to 83%”.
